pIC50: −log10 of the molar value. Where a SMILES comes first, the peptide text is derived from it. Bridges are numbered along the chain shown (N, C = ends). [ ]: non-standard residue; d: D form. The star is where a group is joined. ξ: configuration not given here. Phe(4-COOH) = N[C@@H](Cc1ccc(C(=O)O)cc1)C(=O)O; Bip = N[C@@H](Cc1ccc(-c2ccccc2)cc1)C(=O)O; Phe(3-Me) = Cc1cccc(C[C@H](N)C(=O)O)c1; 4Pal = N[C@@H](Cc1ccncc1)C(=O)O; Cha = N[C@@H](CC1CCCCC1)C(=O)O; Carboxymethyl = O=C(O)C*; Orn = NCCC[C@H](N)C(=O)O; Dab = NCC[C@H](N)C(=O)O; Dap = NC[C@H](N)C(=O)O; ξPra = C#CCC(N)C(=O)O
What follows are molecules tested against T1, human PD-1 / PD-L1-Ig binding on Jurkat cell line over-expressing human PD-1 (Jurkat-PD-1) (Homo sapiens, UniProt Q15116) (assay: Jurkat-PD-1 Cell Binding High-Content Screening Assay (CBA)). Details: Jurkat-PD-1 cells, PE-labeled PD-L1-Ig 20 nM final; read-out: Jurkat HPD1_PDL1 IC50.
T1 construct: expressed in transfected cells; host or cells: Jurkat
T1 sequence (Q15116 25-288): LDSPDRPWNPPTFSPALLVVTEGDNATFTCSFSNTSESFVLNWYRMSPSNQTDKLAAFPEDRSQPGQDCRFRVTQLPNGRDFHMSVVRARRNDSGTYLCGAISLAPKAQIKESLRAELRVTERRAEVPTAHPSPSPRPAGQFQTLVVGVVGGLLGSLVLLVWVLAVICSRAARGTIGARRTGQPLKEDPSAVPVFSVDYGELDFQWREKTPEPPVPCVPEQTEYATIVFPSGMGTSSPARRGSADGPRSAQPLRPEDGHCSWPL
Type: cell-based
Outline: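 PE-PD-L1-Ig 20 nM final; cells in DMEM/10% FCS; cpd pre-incubation 2 h, 37° C; ligand 1 h; PFA fix + Hoechst 33342; high-content imaging read-out.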
Work on `CC(C)C[C@H]1NC(=O)[C@H](CCCN)NC(=O)[C@H](C(C)C)NC(=O)[C@H](Cc2ccc(-c3ccccc3)cc2)NC(=O)[C@H](C(C)C)NC(=O)[C@H](Cc2c[nH]c3ccccc23)NC(=O)[C@H](CC(=O)O)NC(=O)[C@H](Cc2ccc(C(=O)O)cc2)NC(=O)[C@H](Cc2ccc(OCC(=O)O)cc2)NC(=O)CSC[C@@H](C(=O)N[C@@H](C)C(N)=O)NC(=O)[C@H](Cc2cnc[nH]2)NC(=O)[C@H](C(C)C)NC(=O)[C@H](CC2CCCCC2)NC(=O)[C@H](CCN)NC1=O` [Compound 1751] ({CH2CO}-Y(Carboxymethyl)[Phe(4-COOH)]DWV[Bip]V[Orn][dL][Dab][Cha]VHCA-NH2; thioether N-14) yielded a pIC50 of 8.11. Work on `CC(C)C[C@H]1NC(=O)[C@H](CCCN)NC(=O)[C@H](C(C)C)NC(=O)[C@H](Cc2ccc(-c3ccccc3)cc2)NC(=O)[C@H](C(C)C)NC(=O)[C@H](Cc2c[nH]c3ccccc23)NC(=O)[C@H](CC(=O)O)NC(=O)[C@H](Cc2ccc(OCC(=O)O)cc2)NC(=O)[C@H](Cc2ccc(OCC(=O)O)cc2)NC(=O)CSC[C@@H](C(=O)N[C@@H](C)C(N)=O)NC(=O)[C@H](Cc2cnc[nH]2)NC(=O)[C@H](C(C)C)NC(=O)[C@H](CC2CCCCC2)NC(=O)[C@H](CCN)NC1=O` [Compound 1752] ({CH2CO}-Y(Carboxymethyl)Y(Carboxymethyl)DWV[Bip]V[Orn][dL][Dab][Cha]VHCA-NH2; thioether N-14) yielded a pIC50 of 8.17. `Cc1cccc(C[C@@H]2NC(=O)[C@H](CC(=O)O)NC(=O)[C@H](Cc3ccc(OCC(=O)O)cc3)NC(=O)[C@H](CN)NC(=O)CSC[C@@H](C(=O)N[C@@H](C)C(N)=O)NC(=O)[C@H](CN)NC(=O)[C@H](C(C)C)NC(=O)[C@H](CC3CCCCC3)NC(=O)[C@H](CCN)NC(=O)[C@@H](CC(C)C)NC(=O)[C@H](CCCN)NC(=O)[C@H](C(C)C)NC(=O)[C@H](Cc3ccc(-c4ccccc4)cc3)NC(=O)[C@H](C(C)C)NC2=O)c1` [Compound 1753] ({CH2CO}-[Dap]Y(Carboxymethyl)D[Phe(3-Me)]V[Bip]V[Orn][dL][Dab][Cha]V[Dap]CA-NH2; thioether N-14) showed a pIC50 of 8.29. Work on `Cc1cccc(C[C@@H]2NC(=O)[C@H](CC(=O)O)NC(=O)[C@H](Cc3ccc(OCC(=O)O)cc3)NC(=O)[C@H](CN)NC(=O)CSC[C@@H](C(=O)N[C@@H](C)C(N)=O)NC(=O)[C@H](CCCN)NC(=O)[C@H](C(C)C)NC(=O)[C@H](CC3CCCCC3)NC(=O)[C@H](CCN)NC(=O)[C@@H](CC(C)C)NC(=O)[C@H](CCCN)NC(=O)[C@H](C(C)C)NC(=O)[C@H](Cc3ccc(-c4ccccc4)cc3)NC(=O)[C@H](C(C)C)NC2=O)c1` [Compound 1754] ({CH2CO}-[Dap]Y(Carboxymethyl)D[Phe(3-Me)]V[Bip]V[Orn][dL][Dab][Cha]V[Orn]CA-NH2; thioether N-14) yielded a pIC50 of 8.26. Work on `Cc1cccc(C[C@@H]2NC(=O)[C@H](CC(=O)O)NC(=O)[C@H](Cc3ccc(OCC(=O)O)cc3)NC(=O)[C@H](CN)NC(=O)CSC[C@@H](C(=O)N[C@@H](C)C(N)=O)NC(=O)[C@H](CCCCN)NC(=O)[C@H](C(C)C)NC(=O)[C@H](CC3CCCCC3)NC(=O)[C@H](CCN)NC(=O)[C@@H](CC(C)C)NC(=O)[C@H](CCCN)NC(=O)[C@H](C(C)C)NC(=O)[C@H](Cc3ccc(-c4ccccc4)cc3)NC(=O)[C@H](C(C)C)NC2=O)c1` [Compound 1755] ({CH2CO}-[Dap]Y(Carboxymethyl)D[Phe(3-Me)]V[Bip]V[Orn][dL][Dab][Cha]VKCA-NH2; thioether N-14) yielded a pIC50 of 8.08. `Cc1cccc(C[C@@H]2NC(=O)[C@H](CC(=O)O)NC(=O)[C@H](Cc3ccc(OCC(=O)O)cc3)NC(=O)[C@H](CN)NC(=O)CSC[C@@H](C(=O)N[C@@H](C)C(N)=O)NC(=O)[C@H](CCCNC(=N)N)NC(=O)[C@H](C(C)C)NC(=O)[C@H](CC3CCCCC3)NC(=O)[C@H](CCN)NC(=O)[C@@H](CC(C)C)NC(=O)[C@H](CCCN)NC(=O)[C@H](C(C)C)NC(=O)[C@H](Cc3ccc(-c4ccccc4)cc3)NC(=O)[C@H](C(C)C)NC2=O)c1` [Compound 1756] ({CH2CO}-[Dap]Y(Carboxymethyl)D[Phe(3-Me)]V[Bip]V[Orn][dL][Dab][Cha]VRCA-NH2; thioether N-14) showed a pIC50 of 8.26. `Cc1cccc(C[C@@H]2NC(=O)[C@H](CC(=O)O)NC(=O)[C@H](Cc3ccc(OCC(=O)O)cc3)NC(=O)[C@H](CN)NC(=O)CSC[C@@H](C(=O)N[C@@H](C)C(N)=O)NC(=O)[C@H](Cc3cnc[nH]3)NC(=O)[C@H](C(C)C)NC(=O)[C@H](CC3CCCCC3)NC(=O)[C@H](CCN)NC(=O)[C@@H](CC(C)C)NC(=O)[C@H](CCCN)NC(=O)[C@H](C(C)C)NC(=O)[C@H](Cc3ccc(-c4ccccc4)cc3)NC(=O)[C@H](C(C)C)NC2=O)c1` [Compound 1757] ({CH2CO}-[Dap]Y(Carboxymethyl)D[Phe(3-Me)]V[Bip]V[Orn][dL][Dab][Cha]VHCA-NH2; thioether N-14) gave a pIC50 of 7.88. In the case of `C#CCC(NC(=O)[C@H](CN)NC(=O)[C@@H]1CSCC(=O)N[C@@H](Cc2ccncc2)C(=O)N[C@@H](Cc2ccc(OCC(=O)O)cc2)C(=O)N[C@@H](CC(=O)O)C(=O)N[C@@H](Cc2c[nH]c3ccccc23)C(=O)N[C@@H](C(C)C)C(=O)N[C@@H](Cc2ccc(-c3ccccc3)cc2)C(=O)N[C@@H]([C@@H](C)CC)C(=O)N[C@@H](CCCN)C(=O)N[C@H](CC(C)C)C(=O)N[C@@H](CCN)C(=O)N[C@@H](CC(C)C)C(=O)N[C@@H](C(C)C)C(=O)N[C@@H]([C@@H](C)O)C(=O)N1)C(N)=O` (stereo partly drawn) [Compound 1758] ({CH2CO}-[4Pal]Y(Carboxymethyl)DWV[Bip]I[Orn][dL][Dab]LVTC[Dap][ξPra]-NH2; thioether N-14), the pIC50 was 8.12. Molecule `C#CCC(NC(=O)[C@H](CCN)NC(=O)[C@@H]1CSCC(=O)N[C@@H](Cc2ccncc2)C(=O)N[C@@H](Cc2ccc(OCC(=O)O)cc2)C(=O)N[C@@H](CC(=O)O)C(=O)N[C@@H](Cc2c[nH]c3ccccc23)C(=O)N[C@@H](C(C)C)C(=O)N[C@@H](Cc2ccc(-c3ccccc3)cc2)C(=O)N[C@@H]([C@@H](C)CC)C(=O)N[C@@H](CCCN)C(=O)N[C@H](CC(C)C)C(=O)N[C@@H](CCN)C(=O)N[C@@H](CC(C)C)C(=O)N[C@@H](C(C)C)C(=O)N[C@@H]([C@@H](C)O)C(=O)N1)C(N)=O` (stereo partly drawn) [Compound 1759] ({CH2CO}-[4Pal]Y(Carboxymethyl)DWV[Bip]I[Orn][dL][Dab]LVTC[Dab][ξPra]-NH2; thioether N-14) has a pIC50 of 8.14. `C#CCC(NC(=O)[C@H](CCCN)NC(=O)[C@@H]1CSCC(=O)N[C@@H](Cc2ccncc2)C(=O)N[C@@H](Cc2ccc(OCC(=O)O)cc2)C(=O)N[C@@H](CC(=O)O)C(=O)N[C@@H](Cc2c[nH]c3ccccc23)C(=O)N[C@@H](C(C)C)C(=O)N[C@@H](Cc2ccc(-c3ccccc3)cc2)C(=O)N[C@@H]([C@@H](C)CC)C(=O)N[C@@H](CCCN)C(=O)N[C@H](CC(C)C)C(=O)N[C@@H](CCN)C(=O)N[C@@H](CC(C)C)C(=O)N[C@@H](C(C)C)C(=O)N[C@@H]([C@@H](C)O)C(=O)N1)C(N)=O` (stereo partly drawn) [Compound 1760] ({CH2CO}-[4Pal]Y(Carboxymethyl)DWV[Bip]I[Orn][dL][Dab]LVTC[Orn][ξPra]-NH2; thioether N-14) gave a pIC50 of 7.40. Work on `C#CCC(NC(=O)[C@H](CCCCN)NC(=O)[C@@H]1CSCC(=O)N[C@@H](Cc2ccncc2)C(=O)N[C@@H](Cc2ccc(OCC(=O)O)cc2)C(=O)N[C@@H](CC(=O)O)C(=O)N[C@@H](Cc2c[nH]c3ccccc23)C(=O)N[C@@H](C(C)C)C(=O)N[C@@H](Cc2ccc(-c3ccccc3)cc2)C(=O)N[C@@H]([C@@H](C)CC)C(=O)N[C@@H](CCCN)C(=O)N[C@H](CC(C)C)C(=O)N[C@@H](CCN)C(=O)N[C@@H](CC(C)C)C(=O)N[C@@H](C(C)C)C(=O)N[C@@H]([C@@H](C)O)C(=O)N1)C(N)=O` (stereo partly drawn) [Compound 1761] ({CH2CO}-[4Pal]Y(Carboxymethyl)DWV[Bip]I[Orn][dL][Dab]LVTCK[ξPra]-NH2; thioether N-14) yielded a pIC50 of 7.86. `C#CCC(NC(=O)[C@H](CCCNC(=N)N)NC(=O)[C@@H]1CSCC(=O)N[C@@H](Cc2ccncc2)C(=O)N[C@@H](Cc2ccc(OCC(=O)O)cc2)C(=O)N[C@@H](CC(=O)O)C(=O)N[C@@H](Cc2c[nH]c3ccccc23)C(=O)N[C@@H](C(C)C)C(=O)N[C@@H](Cc2ccc(-c3ccccc3)cc2)C(=O)N[C@@H]([C@@H](C)CC)C(=O)N[C@@H](CCCN)C(=O)N[C@H](CC(C)C)C(=O)N[C@@H](CCN)C(=O)N[C@@H](CC(C)C)C(=O)N[C@@H](C(C)C)C(=O)N[C@@H]([C@@H](C)O)C(=O)N1)C(N)=O` (stereo partly drawn) [Compound 1762] ({CH2CO}-[4Pal]Y(Carboxymethyl)DWV[Bip]I[Orn][dL][Dab]LVTCR[ξPra]-NH2; thioether N-14) showed a pIC50 of 7.69. In the case of `C#CCC(NC(=O)[C@H](Cc1cnc[nH]1)NC(=O)[C@@H]1CSCC(=O)N[C@@H](Cc2ccncc2)C(=O)N[C@@H](Cc2ccc(OCC(=O)O)cc2)C(=O)N[C@@H](CC(=O)O)C(=O)N[C@@H](Cc2c[nH]c3ccccc23)C(=O)N[C@@H](C(C)C)C(=O)N[C@@H](Cc2ccc(-c3ccccc3)cc2)C(=O)N[C@@H]([C@@H](C)CC)C(=O)N[C@@H](CCCN)C(=O)N[C@H](CC(C)C)C(=O)N[C@@H](CCN)C(=O)N[C@@H](CC(C)C)C(=O)N[C@@H](C(C)C)C(=O)N[C@@H]([C@@H](C)O)C(=O)N1)C(N)=O` (stereo partly drawn) [Compound 1763] ({CH2CO}-[4Pal]Y(Carboxymethyl)DWV[Bip]I[Orn][dL][Dab]LVTCH[ξPra]-NH2; thioether N-14), the pIC50 was 7.62. `C#CCC(NC(=O)[C@H](CN)NC(=O)[C@@H]1CSCC(=O)N[C@@H](Cc2ccncc2)C(=O)N[C@@H](Cc2ccc(OCC(=O)O)cc2)C(=O)N[C@@H](CC(=O)O)C(=O)N[C@@H](Cc2c[nH]c3ccccc23)C(=O)N[C@@H](C(C)C)C(=O)N[C@@H](Cc2ccc(-c3ccccc3)cc2)C(=O)N[C@@H]([C@@H](C)CC)C(=O)N[C@@H](CCCN)C(=O)N[C@H](CC(C)C)C(=O)N[C@@H](CCN)C(=O)N[C@@H](CC(C)C)C(=O)N[C@@H](C(C)C)C(=O)N[C@@H]([C@@H](C)O)C(=O)N1)C(N)=O` (stereo partly drawn) [Compound 1764] ({CH2CO}-[4Pal]Y(Carboxymethyl)DWV[Bip]I[Orn][dL][Dab]LVTC[Dap][ξPra]-NH2; thioether N-14) showed a pIC50 of 7.48.

From patent publication US20250163104A1, “MACROCYCLIC IMMUNOMODULATORS” (priority 2021, published 2025)
